Patent publication US7598032B2, “Thermostable DNA polymerases incorporating nucleoside triphosphates labeled with fluorescent dyes” (Roche Molecular Systems, priority 1997, dated 2009)

Tests used:
[1] = biological target: F730Y Tma30 DNA polymerase (nucleotides 1-570 of Taq DNA polymerase with G46D fused to nucleotides 571-2679 of Tma DNA polymerase with D323A, E325A, F730Y); assay: Limiting template primer extension competition assay (ddNTP incorporation), F730Y Tma30; format: biochemical, Thermus aquaticus / Thermotoga maritima; conditions: inhibition of DNA synthesis ([α-33P]dCMP incorporation); 20 μM each dNTP, M13 mp18/DG48, pH 8.3, 10 min; 2 units enzyme; read-out: Concentration of Zowie-ddCTP or ddCTP needed for 50% inhibition
Experimental: (§1) The ability of the enzymes of this invention to efficiently incorporate nucleotides labeled with fluorescein family dyes is measured by ddNTP incorporation assays. One such assay is a primer extension competition assay conducted under conditions of limiting template. In this assay, a primer DG48 (5′-[…]), (SEQ ID NO: 11), bound to M13 mp18 template (Innis et al., 1988, Proc. Natl. Acad. Sci. USA 85:9436) is extended in the presence of [α-^33P]dCTP and excess enzyme with various levels of a fluorescently labeled ddNTP, Zowie-ddCTP. Because the incorporation of a ddCTP residue terminates the extension reaction, the more readily a DNA polymerase incorporates a ddCTP into an extended primer, the less [α-^33P]dCTP can be incorporated. Thus, as the efficiency of fluorescently labeled ddCTP incorporation increases, the extent of inhibition of DNA synthesis is increased. The reactions were also performed with various levels of an unlabeled ddCTP. […]
(§2) The relative abilities of G46D F667Y Taq, G46D F667Y E681K Taq and F730Y Tma30 DNA polymerases to incorporate a fluorescein dye family-labeled ddCTP were compared by use of a limiting template, primer extension competition assay. […] In this competition assay, because the incorporation of a ddCTP terminates the extension reaction, the more readily the polymerase incorporates a ddCTP into an extended primer, the less [α-^33P]dCTP can be incorporated. […]

[2] = biological target: T1, Thermus aquaticus (Taq) DNA polymerase variant G46D F667Y E681K (Thermus aquaticus, UniProt P19821, E681K/F667Y/G46D); assay: Limiting template primer extension competition assay (ddNTP incorporation), G46D F667Y E681K Taq; format: biochemical
T1 construct: Expression vector pRDA3-2 contains the full-length Taq DNA polymerase gene; made in house; host or cells: E. coli DG116 (plasmid pLK113)
Experimental: as §1, §2

[3] = dye-terminator dideoxy-sequencing using rhodamine-labeled terminators; format: biochemical

`Nc1ccn([C@H]2CC[C@@H](COP(=O)(O)OP(=O)(O)OP(=O)(O)O)O2)c(=O)n1` [ddCTP] showed an IC50 [1] of 57 nM and an IC50 [2] of 116 nM.

B1: G46D F667Y E681K Taq: thermostable Taq DNA polymerase with G46D, F667Y and E681K mutations, encoded by plasmid pLK113 (protein, UniProt P19821 1-832, looked up, variant G46D F667Y E681K)
DNA polymerase I, thermostable: MRGMLPLFEPKGRVLLVDGHHLAYRTFHALKGLTTSRGEPVQAVYDFAKSLLKALKEDGDAVIVVFDAKAPSFRHEAYGGYKAGRAPTPEDFPRQLALIKELVDLLGLARLEVPGYEADDVLASLAKKAEKEGYEVRILTADKDLYQLLSDRIHVLHPEGYLITPAWLWEKYGLRPDQWADYRALTGDESDNLPGVKGIGEKTARKLLEEWGSLEALLKNLDRLKPAIREKILAHMDDLKLSWDLAKVRTDLPLEVDFAKRREPDRERLRAFLERLEFGSLLHEFGLLESPKALEEAPWPPPEGAFVGFVLSRKEPMWADLLALAAARGGRVHRAPEPYKALRDLKEARGLLAKDLSVLALREGLGLPPGDDPMLLAYLLDPSNTTPEGVARRYGGEWTEEAGERAALSERLFANLWGRLEGEERLLWLYREVERPLSAVLAHMEATGVRLDVAYLRALSLEVAEEIARLEAEVFRLAGHPFNLNSRDQLERVLFDELGLPAIGKTEKTGKRSTSAAVLEALREAHPIVEKILQYRELTKLKSTYIDPLPDLIHPRTGRLHTRFNQTATATGRLSSSDPNLQNIPVRTPLGQRIRRAFIAEEGWLLVALDYSQIELRVLAHLSGDENLIRVFQEGRDIHTETASWMFGVPREAVDPLMRRAAKTINYGVLYGMSAHRLSQKLAIPYEEAQAFIERYFQSFPKVRAWIEKTLEEGRRRGYVETLFGRRRYVPDLEARVKSVREAAERMAFNMPVQGTAADLMKLAMVKLFPRLEEMGARMLLQVHDELVLEAPKERAEAVARLAKEVMEGVYPLAVPLEVEVGIGEDWLSAKE
With B1 the “peak heights in dye-terminator dideoxy-sequencing” value [3] was “more uniform peak heights”.
